Laboratory results published in patent US8133885B2, “Non steroidal glucocorticoid receptor modulators” (Merck Sharp & Dohme Corp., priority 2005, dated 2012).
Where two headings read alike, the source gives them in different places.

Experiments:
LPS-induced TNFα = test: Inhibition of LPS-induced TNFα in serum of mice; type: in vivo; settings: Mus musculus, read-out: ED50 for inhibition of LPS-induced TNFα
Protocol: The potency of compounds to inhibit inflammation was quantified in a model in which mice were treated with lipopolysaccharide (LPS). Anti-inflammatory effects were quantified as inhibition of LPS-induced TNFα (S. R. Hyde & R. E. McCallum, Infection & Immunity, 60; 976-982 (1992)). Mice were treated i.p. with 0.5 mg/kg LPS. […] 1½ hours after LPS induction, serum was collected and mice were sacrificed. TNFα levels in serum were quantified using a commercially available Elisa-kit according to the descriptions of the supplier.

[1] = molecular target: T1, recombinant human-GR (GR) (Homo sapiens, UniProt P04150); test: Glucocorticoid Receptor Competitor Assay kit (PanVera), fluorescence polarisation binding; settings: fluorescence polarisation competition with fluormone GS1 1 nM, GR 4 nM, 90 minutes room temperature
T1 construct: purchased PanVera
T1 sequence (P04150 1-777): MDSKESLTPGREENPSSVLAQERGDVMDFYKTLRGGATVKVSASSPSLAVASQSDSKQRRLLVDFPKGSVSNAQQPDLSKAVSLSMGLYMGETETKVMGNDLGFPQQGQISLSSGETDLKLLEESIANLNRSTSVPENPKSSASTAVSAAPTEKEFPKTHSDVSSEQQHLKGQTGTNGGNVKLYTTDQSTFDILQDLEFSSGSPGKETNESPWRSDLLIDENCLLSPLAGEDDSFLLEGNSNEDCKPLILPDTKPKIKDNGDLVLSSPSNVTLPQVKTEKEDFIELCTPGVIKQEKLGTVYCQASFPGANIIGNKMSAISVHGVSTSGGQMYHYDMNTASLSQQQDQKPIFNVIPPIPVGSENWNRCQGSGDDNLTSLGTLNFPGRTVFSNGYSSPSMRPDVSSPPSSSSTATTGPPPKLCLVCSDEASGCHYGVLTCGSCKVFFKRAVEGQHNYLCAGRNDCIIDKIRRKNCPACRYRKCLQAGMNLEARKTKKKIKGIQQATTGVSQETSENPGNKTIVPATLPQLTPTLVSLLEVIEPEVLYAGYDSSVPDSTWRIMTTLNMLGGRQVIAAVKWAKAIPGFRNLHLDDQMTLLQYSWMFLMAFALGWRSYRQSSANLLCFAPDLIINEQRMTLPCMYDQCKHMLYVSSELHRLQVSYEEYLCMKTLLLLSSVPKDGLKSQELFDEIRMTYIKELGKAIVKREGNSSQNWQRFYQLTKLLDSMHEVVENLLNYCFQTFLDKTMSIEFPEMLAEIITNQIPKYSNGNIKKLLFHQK
Protocol: The affinity of compounds was tested using a Glucocorticoid Receptor Competitor Assay kit (PanVera®). Components of the kit were thawed from −80° C. on ice (Fluormone GS1, recombinant human-GR (GR)) or at room temperature (GR screening buffer, stabilising peptide and DTT). 10 mM test compounds were manually diluted to 20 μM then serially diluted to a final concentration range of 10 μM to 0.1 nM using the BioMek 2000 (Beckman-Coulter) into a black walled 384 welled plate (Matrix technologies). In the following order: fluormone GS1 (1 nM final concentration) is added to all wells excluding the buffer control wells, GR (4 nM final concentration) is added to all wells except minimum and buffer control wells, cortisol (10 μM final concentration) is added to fluormone GS1 control wells only, buffer is added to all wells to a final volume of 40 μl. The plate is covered and incubated at room temperature with agitation for 90 minutes. Readings were taken using the Analyst (LJL) in fluorescence polarisation reading mode. The MilliP ratio is calculated from cps readings obtained in parallel and perpendicular mode. The percent effect of the bound ligand is calculated at each concentration and the dose response curves plotted allowing the EC50 to be calculated. […]

[2] = mice, 0.5 mg/kg LPS i.p., compound oral or subcutaneous 1 hour before LPS, serum 1½ hours after LPS

Q: For `CN1c2ccccc2[C@@H]2C[C@@H](NC(=O)C(Cl)Cl)CCN2c2ccc(C#N)cc21` (relative stereo) [Example 5, cis-2,2-dichloro-N-(8-cyano-1,2,3,4,10,14b-hexahydro-10-methyldibenzo-[b,f]pyrido[1,2-d][1,4]diazepin-2-yl)acetamide], which ED50 (LPS-induced TNFα; [2]) is on record?
A: 0.5 to 20 mg/kg

Q: How did the EC50 [1] turn out when `CC#C[C@]1(O)CC[C@H]2[C@@H]3CCC4=CC(=O)CCC4=C3[C@@H](c3ccc4c(c3)OCO4)C[C@@]21C` was run?
A: 10 nM

Q: With `Cc1nnsc1C(=O)N[C@H]1CCN2c3ccc([N+](=O)[O-])cc3N(C)c3ccccc3[C@@H]2C1` (relative stereo) [Example 31, cis-N-(1,2,3,4,10,14b-hexahydro-10-methyl-8-nitrodibenzo[b,f]pyrido[1,2-d][1,4]diazepin-2-yl)-4-methyl-1,2,3-thiadiazole-5-carboxamide] as the molecule, how does the ED50 (LPS-induced TNFα; [2]) read?
A: 0.5 to 20 mg/kg

Q: For `CN1c2ccccc2[C@@H]2C[C@@H](NC(=O)C(F)(F)F)CCN2c2cc(Cl)c(C#N)cc21` (relative stereo) [Example 9, cis-N-(7-chloro-8-cyano-1,2,3,4,10,14b-hexahydro-10-methyl-dibenzo-[b,f]pyrido[1,2-d][1,4]diazepin-2-yl)-2,2,2-trifluoroacetamide], which ED50 (LPS-induced TNFα) is on record?
A: 0.5 to 20 mg/kg

Q: For `C[C@]12C=CC(=O)C=C1CC[C@@H]1[C@@H]2[C@@H](O)C[C@@]2(C)[C@H]1CC[C@]2(O)C(=O)CO` [prednisolone, reference compound], which ED50 (LPS-induced TNFα; [2]) is on record?
A: 0.5 mg/kg

Q: For `CN1c2ccccc2[C@@H]2C[C@@H](NC(=O)C(F)(F)F)CCN2c2ccc(C#N)cc21` (relative stereo) [Example 3, cis-N-(8-cyano-1,2,3,4,10,14b-hexahydro-10-methyldibenzo[b,f]pyrido[1,2-d][1,4]diazepin-2-yl)-2,2,2-trifluoroacetamide], which ED50 (LPS-induced TNFα; [2]) is on record?
A: 0.5 to 20 mg/kg

Q: How did the ED50 (LPS-induced TNFα; [2]) turn out when `CN1c2ccccc2[C@@H]2C[C@@H](NC(=O)C(F)(F)F)CCN2c2ccc(C(=O)Nc3ccccc3)cc21` (relative stereo) [Example 4, cis-1,2,3,4,10,14b-hexahydro-10-methyl-N-phenyl-2-(2,2,2-trifluoroacetylamino)dibenzo[b,f]pyrido[1,2-d][1,4]diazepine-8-carboxamide] was run?
A: 0.5 to 20 mg/kg

Q: With `CN1c2ccccc2[C@@H]2C[C@@H](NC(=O)C(F)(F)F)CCN2c2ccc([N+](=O)[O-])cc21` (relative stereo) [Example 2, cis-2,2,2-trifluoro-N-(1,2,3,4,10,14b-hexahydro-10-methyl-8-nitrodibenzo[b,f]pyrido[1,2-d][1,4]diazepin-2-yl)acetamide] as the molecule, how does the ED50 (LPS-induced TNFα; [2]) read?
A: 0.5 to 20 mg/kg
